In US11300509B2, “Cleavable linkers for protein translation reporting” (9412-1126 Québec inc., priority 2020, dated 2022):
No end group written: not given here.

Assays:
GFP1-10 = target: T1, GFP1-10 (Aequorea victoria, UniProt P42212, A206V/E111V/F64L/F99S/I128T/I167V/I171V/K166T/M153T/N105K/Q80R/S205T/S30R/S65T/V163A/Y145F/Y39I); test: In vitro reconstitution (fluorescence complementation) of split GFP: GFP11 peptide mixed with purified GFP1-10; format: binding; set-up: half time of reconstitution: dose or concentration left out as unconfirmed; settings: for observed rate constant (kobs) of GFP11 peptide binding: pseudo-first order
T1 construct: Residues 1-213 of GFP, corresponding to the first 10 beta strands of GFP (GFP1-10); made in house; host or cells: Escherichia coli BL21(DE3)
Experimental: FIGS. 1F-G, relating to the stoichiometric production of GFP11 reporter as a function of time using a PTR linker to allow instantaneous detection of protein translation, are graphs that illustrate that reconstitution of split GFP as a function of seconds passed. […] Within the first second of reconstitution, i.e., in milliseconds, fluorescence emission begins (FIG. 1F), and the fluorescence intensity of the reaction rose logarithmically and began to saturate after 5 minutes (FIG. 1G). […] To obtain kinetic measurements of the reconstitution reaction at sub-second timescales, an ultrasensitive fluorescence spectrophotometer was used. A stopped-flow dispenser was used to mix and deliver known volumes of GFP1-10 and GFP11 proteins. This allowed the establishment of a to for the moment split GFP components first interact. […] Fluorescence increase over time from the bimolecular reaction was modeled as pseudo-first order and fit to a one phase association curve to determine the observed rate constant (kobs) of GFP11 peptide binding for each concentration of GFP11 tested. For 50 nM GFP11 and excess GFP1-10, the kobs is 0.003 s-1.
In the volume of a medium-size cell, the slower, lowest concentration reactions would generate tens of reconstituted molecules per second, and for the average protein synthesis hundreds per second. […].
In vitro fluorescence complementation was performed by mixing purified XFP1-10 protein and chemically synthesized XFP11 peptides and the fluorescence intensity of the reaction was collected with a StepOnePlus real-time thermal cycler (Thermo-Fisher). […] XFP11 peptide was added according to different final peptide concentrations and the microplate was immediately loaded into the fluorescence reader. The fluorescence intensity was measured every 10 seconds for 45 minutes at 32° C. or 37° C. with 495 nm excitation and 520 nm emission. The fluorescence intensity was normalized to the initial fluorescence intensity to express relative fluorescence increase upon fluorescence reconstitution. […] Standard curves for XFP fluorescence measurements were generated by either using reconstituted XFP or XFP purified from E. coli using GFP specific chromatography columns (Bio-Rad). XFP protein concentration was determined using the Bradford assay and absorbance readings at 280 nm with a NanoDrop 2000 (Thermo-Fisher). Samples were serially diluted (1:10 or 1:5) and 10 μL samples were imaged to reduce any non-linear fluorescence excitation effects. […] Total fluorescence intensity (in photon counts) was collected every 0.1 s or 0.01 s for varying durations.
Pearson's linear correlations were calculated by fitting the data to a simple linear regression model, with the coefficient of determination, R2. […]

Cherry1-10 = target: T2, Cherry1-10 (Discosoma sp., UniProt Q9U6Y8, A164R/C117E/F124L/F177V/H162N/H41T/I125L/I180T/K163Q/K83L/K92T/L150M/L174D/M182K/N42Q/Q66M/R153E/R17H/R36H/S179T/S197I/T21S/V127T/V156A/V175A/V44A/V71A/Y192A/Y194N); test: In vitro reconstitution of split Cherry: Cherry11 peptide mixed with Cherry1-10; format: binding
T2 construct: made in house; host or cells: Escherichia coli BL21(DE3)
Experimental: Fluorescence output was recorded every 0.1 seconds for a duration of 30 seconds.
In vitro fluorescence complementation was performed by mixing purified XFP1-10 protein and chemically synthesized XFP11 peptides and the fluorescence intensity of the reaction was collected with a StepOnePlus real-time thermal cycler (Thermo-Fisher). […] XFP1-10 in TNG buffer or PBS (varied pH) was added to wells of a 96-well microplate coated with 1 mM bovine serum albumin and allowed to equilibrate for 60 seconds. XFP11 peptide was added according to different final peptide concentrations and the microplate was immediately loaded into the fluorescence reader. The fluorescence intensity was measured every 10 seconds for 45 minutes at 32° C. or 37° C. with 495 nm excitation and 520 nm emission. The fluorescence intensity was normalized to the initial fluorescence intensity to express relative fluorescence increase upon fluorescence reconstitution. […] Standard curves for XFP fluorescence measurements were generated by either using reconstituted XFP or XFP purified from E. coli using GFP specific chromatography columns (Bio-Rad). XFP protein concentration was determined using the Bradford assay and absorbance readings at 280 nm with a NanoDrop 2000 (Thermo-Fisher). Samples were serially diluted (1:10 or 1:5) and 10 μL samples were imaged to reduce any non-linear fluorescence excitation effects. […]

Row | Substance | observed rate constant (kobs) of GFP11 peptide binding (GFP1-10; 50 nM GFP11 and excess GFP1-10, one phase association fit) | half time of reconstitution (GFP1-10; one phase association fit, FIG. 1G) | observed rate constant (kobs) of GFP11 peptide binding (GFP1-10; one phase association fit, FIG. 1G, R2=0.99) | time to detection of green fluorescence upon mixing (GFP1-10; stopped-flow mixing of GFP1-10 and GFP11) | onset of reconstitution upon addition of peptide (Cherry1-10; Cherry1-10 and Cherry11 in vitro, FIG. 3E) | fluorescence signal strength of reconstitution (Cherry1-10; compared with split GFP and split Dendra2)
1 | RDHMVLHEYVNAAGIT [GFP11] | 0.003 s⁻¹ | 95 s | 0.007 ± 0.0001 s⁻¹ | ≤ 100 ms |  | 
2 | Cherry11: small fragment of split mCherry red fluorescent protein; purified peptide that reconstitutes with Cherry1-10 (MGGGGSGGGGSYTIVEQYERAEGRHSTGG) |  |  |  |  | immediately | overall weaker signal compared to split GFP and split Dendra2
